Assay results reported in US20220324835A1 (Nurix Therapeutics, Inc., priority 2018, published 2022).

What was measured:
T-cell [1] = assay: CD25 cell surface staining on T-cells stimulated with anti-CD3 antibody alone (Biological Example 2); type: cell-based, human; settings: T-cell, fold change over baseline, primary human total T-cells, read-out: CD25 staining Anti-CD3 stimulation; for fold induction at 1 µM: 1 μM Cbl-b inhibitor; for fold induction at 8 µM: 8 μM Cbl-b inhibitor
T-cell [2] = assay: IL-2 secretion from T-cells stimulated with anti-CD3 antibody alone (Biological Example 2); type: cell-based, human; settings: T-cell, fold change over baseline, primary human total T-cells, read-out: IL-2 secretion Anti-CD3 stimulation; for fold induction at 1 µM: 1 μM Cbl-b inhibitor; for fold induction at 8 µM: 8 μM Cbl-b inhibitor
[3] = test system: primary human total T-cells; assay: T-cell activation assessed by CD69 expression; type: cell-based
Method in brief: (§1)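 Readouts are fold change versus compound-free cells under the same stimulation: plate-bound anti-CD3 (OKT3, 10 μg/mL coating) alone or with soluble anti-CD28 at 5 μg/mL, for 48 h. Isolated human total T cells (1×10^5/well) got inhibitor 1 h beforehand at concentrations such as 10, 1.11 or 0.123 μM. Measured: GM-CSF/IFNγ/TNFα secretion, surface CD69, proliferation by dye dilution.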

[4] = test system: primary human total T-cells; assay: T-cell activation assessed by cell proliferation (Cell Trace Violet); type: cell-based
Method in brief: as §1

[5] = CD3/CD28 stimulation, CD4 T-cells, read-out: % CD69+ (CD4)
[6] = CD3/CD28 stimulation, CD8 T-cells, read-out: % CD69+ (CD8)
[7] = CD3 alone stimulation, CD4 T-cells, read-out: % CD69+ (CD4)
[8] = CD3 alone stimulation, CD8 T-cells, read-out: % CD69+ (CD8)
[9] = CD3/CD28 stimulation, CD4 T-cells, read-out: % CP (cell proliferation) (CD4)
[10] = CD3/CD28 stimulation, CD8 T-cells, read-out: % CP (cell proliferation) (CD8)
[11] = CD3 alone stimulation, CD8 T-cells, read-out: % CP (cell proliferation) (CD8)

With `C[C@H](Cc1nncn1C)c1cccc(N2Cc3c(ccnc3C3CC3)C2=O)c1` [Compound 257, 4-cyclopropyl-2-[3-[(1R)-1-methyl-2-(4-methyl-1,2,4-triazol-3-yl)ethyl]phenyl]-3H-pyrrolo[3,4-c]pyridin-1-one] the fold induction at 1 µM (T-cell [1]) was 0.601 to 0.8, the fold induction at 8 µM (T-cell [1]) was > 1 and the fold induction at 1 µM (T-cell [2]) was 0.151 to 0.2. For the same compound, the fold induction at 8 µM (T-cell [2]) was > 0.201, the fold induction at 1.11 µM [3, 5] was ≤ 1.2 and the fold induction at 10 µM [3, 5] was 1.4 to 1.6. For the same compound, the fold induction at 1.11 µM [3, 6] was ≤ 1.2, the fold induction at 10 µM [3, 6] was 1.2 to 1.4 and the fold induction at 1.11 µM [3, 7] was ≤ 1.2. For the same compound, the fold induction at 10 µM [3, 7] was 1.2 to 1.4, the fold induction at 1.11 µM [3, 8] was ≤ 1.2 and the fold induction at 10 µM [3, 8] was 1.2 to 1.4. The fold induction at 1.11 µM [4, 9] was 2.01 to 3, the fold induction at 10 µM [4, 9] was > 4 and the fold induction at 1.11 µM [4, 10] was < 2. For the same compound, the fold induction at 10 µM [4, 10] was 3.01 to 4, the fold induction at 1.11 µM [4, 11] was < 2 and the fold induction at 10 µM [4, 11] was 3.01 to 4.
With `CNCc1ccc(C(=O)Nc2cccc([C@H](C)Cc3nncn3C)c2)nc1C1CC1` [Compound 376, (R)-6-cyclopropyl-N-(3-(1-(4-methyl-4H-1,2,4-triazol-3-yl)propan-2-yl)phenyl)-5-((methylamino)methyl)picolinamide] the fold induction at 1.11 µM [3, 5] was 1.4 to 1.6, the fold induction at 10 µM [3, 5] was > 1.6 and the fold induction at 1.11 µM [3, 6] was 1.2 to 1.4. For the same compound, the fold induction at 10 µM [3, 6] was 1.2 to 1.4, the fold induction at 1.11 µM [3, 7] was > 1.6 and the fold induction at 10 µM [3, 7] was > 1.6. For the same compound, the fold induction at 1.11 µM [3, 8] was 1.2 to 1.4, the fold induction at 10 µM [3, 8] was 1.4 to 1.6 and the fold induction at 1.11 µM [4, 9] was > 4. The fold induction at 10 µM [4, 9] was > 4, the fold induction at 1.11 µM [4, 10] was 3.01 to 4 and the fold induction at 10 µM [4, 10] was > 4. The fold induction at 1.11 µM [4, 11] was > 4 and the fold induction at 10 µM [4, 11] was > 4.
`Cn1cnnc1[C@@H]1C[C@@H]1c1cccc(N2Cc3c(cccc3C(F)(F)F)C2=O)c1` [Compound 282, 2-(3-((1S,2R)-2-(4-methyl-4H-1,2,4-triazol-3-yl)cyclopropyl)phenyl)-4-(trifluoromethyl)isoindolin-1-one] was tested, and the fold induction at 1 µM (T-cell [1]) was 0.601 to 0.8, the fold induction at 8 µM (T-cell [1]) was > 1 and the fold induction at 1 µM (T-cell [2]) was < 0.05. For the same compound, the fold induction at 8 µM (T-cell [2]) was < 0.05, the fold induction at 1.11 µM [3, 5] was ≤ 1.2 and the fold induction at 10 µM [3, 5] was 1.2 to 1.4. The fold induction at 1.11 µM [3, 6] was ≤ 1.2, the fold induction at 10 µM [3, 6] was 1.2 to 1.4 and the fold induction at 1.11 µM [3, 7] was ≤ 1.2. For the same compound, the fold induction at 10 µM [3, 7] was 1.2 to 1.4, the fold induction at 1.11 µM [3, 8] was ≤ 1.2 and the fold induction at 10 µM [3, 8] was ≤ 1.2. For the same compound, the fold induction at 1.11 µM [4, 9] was < 2, the fold induction at 10 µM [4, 9] was > 4 and the fold induction at 1.11 µM [4, 10] was < 2. For the same compound, the fold induction at 10 µM [4, 10] was 2.01 to 3, the fold induction at 1.11 µM [4, 11] was < 2 and the fold induction at 10 µM [4, 11] was 3.01 to 4.
For `C[C@H](Sc1nncn1C)c1cccc(NC(=O)c2cc(C(=O)N3CC[C@H](O)C3)ccn2)c1` [Compound 140, 4-[[(3S)-3-hydroxypyrrolidin-1-yl]carbonyl]-N-[3-[(1S)-1-[(4-methyl-4H-1,2,4-triazol-3-yl)sulfanyl]ethyl]phenyl]pyridine-2-carboxamide], the fold induction at 1 µM (T-cell [1]) was 0.601 to 0.8, the fold induction at 8 µM (T-cell [1]) was 0.801 to 1 and the fold induction at 1 µM (T-cell [2]) was < 0.05. For the same compound, the fold induction at 8 µM (T-cell [2]) was < 0.05, the fold induction at 1.11 µM [3, 5] was 1.4 to 1.6 and the fold induction at 10 µM [3, 5] was > 1.6. For the same compound, the fold induction at 1.11 µM [3, 6] was 1.2 to 1.4, the fold induction at 10 µM [3, 6] was 1.2 to 1.4 and the fold induction at 1.11 µM [3, 7] was > 1.6. The fold induction at 10 µM [3, 7] was > 1.6, the fold induction at 1.11 µM [3, 8] was 1.4 to 1.6 and the fold induction at 10 µM [3, 8] was 1.4 to 1.6. The fold induction at 1.11 µM [4, 9] was > 4, the fold induction at 10 µM [4, 9] was > 4 and the fold induction at 1.11 µM [4, 10] was > 4. The fold induction at 10 µM [4, 10] was > 4, the fold induction at 1.11 µM [4, 11] was > 4 and the fold induction at 10 µM [4, 11] was > 4.
`C[C@H](Cc1nncn1C)c1cccc(NC(=O)c2nc(C(F)(F)F)c[nH]2)c1` [Compound 326, (R)-N-(3-(1-(4-methyl-4H-1,2,4-triazol-3-yl)propan-2-yl)phenyl)-4-(trifluoromethyl)-1H-imidazole-2-carboxamide] was tested, and the fold induction at 1 µM (T-cell [1]) was 0.801 to 1, the fold induction at 8 µM (T-cell [1]) was > 1 and the fold induction at 1 µM (T-cell [2]) was 0.051 to 0.1. For the same compound, the fold induction at 8 µM (T-cell [2]) was > 0.201, the fold induction at 1.11 µM [3, 5] was 1.2 to 1.4 and the fold induction at 10 µM [3, 5] was 1.4 to 1.6. For the same compound, the fold induction at 1.11 µM [3, 6] was ≤ 1.2, the fold induction at 10 µM [3, 6] was 1.2 to 1.4 and the fold induction at 1.11 µM [3, 7] was 1.2 to 1.4. For the same compound, the fold induction at 10 µM [3, 7] was 1.4 to 1.6, the fold induction at 1.11 µM [3, 8] was ≤ 1.2 and the fold induction at 10 µM [3, 8] was 1.2 to 1.4. For the same compound, the fold induction at 1.11 µM [4, 9] was 2.01 to 3, the fold induction at 10 µM [4, 9] was > 4 and the fold induction at 1.11 µM [4, 10] was 2.01 to 3. For the same compound, the fold induction at 10 µM [4, 10] was 3.01 to 4, the fold induction at 1.11 µM [4, 11] was 2.01 to 3 and the fold induction at 10 µM [4, 11] was > 4.
In the case of `Cn1cnnc1[C@@H]1C[C@@H]1c1cccc(N2Cc3c(ccnc3C(F)(F)F)C2=O)c1` [Compound 369, 2-{3-[(1S,2R)-2-(4-methyl-4H-1,2,4-triazol-3-yl)cyclopropyl]phenyl}-4-(trifluoromethyl)-1H,2H,3H-pyrrolo[3,4-c]pyridin-1-one], the fold induction at 1.11 µM [3, 5] is reported as ≤ 1.2, the fold induction at 10 µM [3, 5] is reported as 1.4 to 1.6 and the fold induction at 1.11 µM [3, 6] is reported as ≤ 1.2. The fold induction at 10 µM [3, 6] was 1.2 to 1.4, the fold induction at 1.11 µM [3, 7] was ≤ 1.2 and the fold induction at 10 µM [3, 7] was ≤ 1.2. The fold induction at 1.11 µM [3, 8] was ≤ 1.2, the fold induction at 10 µM [3, 8] was ≤ 1.2 and the fold induction at 1.11 µM [4, 9] was < 2. The fold induction at 10 µM [4, 9] was > 4, the fold induction at 1.11 µM [4, 10] was < 2 and the fold induction at 10 µM [4, 10] was 2.01 to 3. The fold induction at 1.11 µM [4, 11] was < 2 and the fold induction at 10 µM [4, 11] was < 2.
With `Cc1cc2c(c(C3CC3)n1)CN(c1cccc([C@H](C)Cc3nncn3C)c1)C2=O` [Compound 372, 4-cyclopropyl-6-methyl-2-{3-[(2R)-1-(4-methyl-4H-1,2,4-triazol-3-yl)propan-2-yl]phenyl}-1H,2H,3H-pyrrolo[3,4-c]pyridin-1-one] the fold induction at 1.11 µM [3, 5] was ≤ 1.2, the fold induction at 10 µM [3, 5] was 1.2 to 1.4 and the fold induction at 1.11 µM [3, 6] was ≤ 1.2. For the same compound, the fold induction at 10 µM [3, 6] was 1.2 to 1.4, the fold induction at 1.11 µM [3, 7] was ≤ 1.2 and the fold induction at 10 µM [3, 7] was 1.2 to 1.4. The fold induction at 1.11 µM [3, 8] was ≤ 1.2, the fold induction at 10 µM [3, 8] was 1.2 to 1.4 and the fold induction at 1.11 µM [4, 9] was < 2. For the same compound, the fold induction at 10 µM [4, 9] was > 4, the fold induction at 1.11 µM [4, 10] was < 2 and the fold induction at 10 µM [4, 10] was 2.01 to 3. For the same compound, the fold induction at 1.11 µM [4, 11] was < 2 and the fold induction at 10 µM [4, 11] was 2.01 to 3.
`C[C@H](Cc1nncn1C)c1cccc(NC(=O)c2cccc(CCO)n2)c1` [Compound 202, 6-(2-hydroxyethyl)-N-[3-[(2R)-1-(4-methyl-4H-1,2,4-triazol-3-yl)propan-2-yl]phenyl]pyridine-2-carboxamide] was tested, and the fold induction at 1 µM (T-cell [1]) was < 0.6, the fold induction at 8 µM (T-cell [1]) was 0.801 to 1 and the fold induction at 1 µM (T-cell [2]) was 0.051 to 0.1. For the same compound, the fold induction at 8 µM (T-cell [2]) was 0.151 to 0.2, the fold induction at 1.11 µM [3, 5] was ≤ 1.2 and the fold induction at 10 µM [3, 5] was 1.2 to 1.4. For the same compound, the fold induction at 1.11 µM [3, 6] was ≤ 1.2, the fold induction at 10 µM [3, 6] was ≤ 1.2 and the fold induction at 1.11 µM [3, 7] was ≤ 1.2. For the same compound, the fold induction at 10 µM [3, 7] was 1.2 to 1.4, the fold induction at 1.11 µM [3, 8] was ≤ 1.2 and the fold induction at 10 µM [3, 8] was ≤ 1.2. The fold induction at 1.11 µM [4, 9] was < 2, the fold induction at 10 µM [4, 9] was 3.01 to 4 and the fold induction at 1.11 µM [4, 10] was < 2. The fold induction at 10 µM [4, 10] was 2.01 to 3, the fold induction at 1.11 µM [4, 11] was < 2 and the fold induction at 10 µM [4, 11] was < 2.
